Measurements as given in patent publication US6723753B2, “Substituted n-benzyl-n-phenyl aminoalcohol compounds useful for inhibiting cholesteryl ester transfer protein activity” (Pharmacia Corporation, priority 2002, dated 2004).

These compounds were tested against T1, CETP (Homo sapiens, UniProt P11597) (assay: Assay of CETP Inhibition using Purified Components (Reconstituted Buffer Assay)). Conditions: Inhibition of CETP activity in reconstituted buffer assay; transfer of [3H]CE from HDL to LDL; read-out: IC50.
T1 sequence (P11597 18-493): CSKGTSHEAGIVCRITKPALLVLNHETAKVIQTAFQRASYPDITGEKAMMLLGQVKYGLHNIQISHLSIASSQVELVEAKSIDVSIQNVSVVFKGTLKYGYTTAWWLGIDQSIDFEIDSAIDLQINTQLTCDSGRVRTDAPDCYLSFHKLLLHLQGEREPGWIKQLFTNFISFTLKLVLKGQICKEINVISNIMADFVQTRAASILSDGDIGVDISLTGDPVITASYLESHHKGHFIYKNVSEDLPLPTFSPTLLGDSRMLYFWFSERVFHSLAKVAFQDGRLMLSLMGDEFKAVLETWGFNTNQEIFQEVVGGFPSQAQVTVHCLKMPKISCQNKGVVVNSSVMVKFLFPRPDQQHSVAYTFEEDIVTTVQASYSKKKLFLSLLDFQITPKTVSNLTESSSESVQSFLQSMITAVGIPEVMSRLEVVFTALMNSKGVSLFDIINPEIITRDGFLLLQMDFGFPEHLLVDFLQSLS
Format: biochemical
Parameters: made in house; host or cells: CHO cells (serum-free conditioned medium)
How it was run: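 Transfer of radiolabeled cholesteryl ester from HDL to LDL was run for 2 h at 37 °C in pH 7.4 Tris buffer with 1% BSA, using purified CHO-expressed human CETP. Precipitated LDL radioactivity, measured by scintillation after dextran sulfate/MgCl2 precipitation and filtration, yielded the IC50.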

Row | Compound | IC50
1 | COCc1cccc(N(Cc2cccc(OC(F)(F)C(F)F)c2)CC(O)C(F)(F)F)c1 (centres unmarked) [Example 514C, 3-[[3(methoxymethyl)phenyl][[3-(1,1,2,2-tetrafluoroethoxy)-phenyl]methyl]amino]-1,1,1-trifluoro-2-propanol] | 6600 nM
2 | CC(C)(C)c1ccc(Cc2cccc(N(Cc3cccc(OC(F)(F)C(F)F)c3)CC(O)C(F)(F)F)c2)cc1 (centres unmarked) [Example 520] | 30000 nM
3 | O=S(=O)(Nc1cccc(N(Cc2cccc(OC(F)(F)C(F)F)c2)CC(O)C(F)(F)F)c1)c1ccc(F)cc1 (centres unmarked) [Example 528, 4-fluoro-N-[3-[[[3-(1,1,2,2-tetrafluoroethoxy)phenyl]methyl](3,3,3-trifluoro-2-hydroxypropyl)amino]phenyl]benzenesulfonamide] | 43000 nM
4 | O=S(=O)(Nc1cccc(N(Cc2cccc(OC(F)(F)C(F)F)c2)CC(O)C(F)(F)F)c1)c1ccccc1 (centres unmarked) [Example 529] | 49000 nM
5 | Cc1cccc(S(=O)(=O)Nc2cccc(N(Cc3cccc(OC(F)(F)C(F)F)c3)CC(O)C(F)(F)F)c2)c1 (centres unmarked) [Example 530] | > 50000 nM
6 | O=S(=O)(Nc1cccc(N(Cc2cccc(OC(F)(F)C(F)F)c2)CC(O)C(F)(F)F)c1)c1cccc(C(F)(F)F)c1 (centres unmarked) [Example 531] | > 50000 nM
7 | O=[N+]([O-])c1cccc(S(=O)(=O)Nc2cccc(N(Cc3cccc(OC(F)(F)C(F)F)c3)CC(O)C(F)(F)F)c2)c1 (centres unmarked) [Example 532] | > 50000 nM
8 | O=S(=O)(Nc1cccc(N(Cc2cccc(OC(F)(F)C(F)F)c2)CC(O)C(F)(F)F)c1)c1ccc(F)c(Cl)c1 (centres unmarked) [Example 533] | > 50000 nM
9 | CC(C)S(=O)(=O)Nc1cccc(N(Cc2cccc(OC(F)(F)C(F)F)c2)CC(O)C(F)(F)F)c1 (centres unmarked) [Example 534] | > 50000 nM
10 | O=C(Nc1cccc(N(Cc2cccc(OC(F)(F)C(F)F)c2)CC(O)C(F)(F)F)c1)c1ccc(F)cc1 (centres unmarked) [Example 535, 4-fluoro-N-[3-[[[3-(1,1,2,2-tetrafluoroethoxy)phenyl]methyl](3,3,3-trifluoro-2-hydroxypropyl)amino]phenyl]benzamide] | > 50000 nM
11 | O=C(Nc1cccc(N(Cc2cccc(OC(F)(F)C(F)F)c2)CC(O)C(F)(F)F)c1)c1ccccc1 (centres unmarked) [Example 536] | > 50000 nM
12 | COc1cccc(C(=O)Nc2cccc(N(Cc3cccc(OC(F)(F)C(F)F)c3)CC(O)C(F)(F)F)c2)c1 (centres unmarked) [Example 537] | > 50000 nM
13 | CC(C)COC(=O)Nc1cccc(N(Cc2cccc(OC(F)(F)C(F)F)c2)CC(O)C(F)(F)F)c1 (centres unmarked) [Example 538] | > 50000 nM
14 | O=C(Nc1cccc(N(Cc2cccc(OC(F)(F)C(F)F)c2)CC(O)C(F)(F)F)c1)c1cccnc1 (centres unmarked) [Example 539] | > 50000 nM
15 | CC(C)C(=O)Nc1cccc(N(Cc2cccc(OC(F)(F)C(F)F)c2)CC(O)C(F)(F)F)c1 (centres unmarked) [Example 540] | > 50000 nM
16 | O=C(Nc1ccc(F)cc1)Nc1cccc(N(Cc2cccc(OC(F)(F)C(F)F)c2)CC(O)C(F)(F)F)c1 (centres unmarked) [Example 545, N-(4-fluorophenyl)-N′-[3-[[[3-(1,1,2,2-tetrafluoroethoxy)phenyl]methyl]-(3,3,3-trifluoro-2-hydroxypropyl)amino]phenyl]urea] | > 50000 nM
17 | O=C(Nc1ccccc1)Nc1cccc(N(Cc2cccc(OC(F)(F)C(F)F)c2)CC(O)C(F)(F)F)c1 (centres unmarked) [Example 546] | > 50000 nM
18 | COc1cccc(NC(=O)Nc2cccc(N(Cc3cccc(OC(F)(F)C(F)F)c3)CC(O)C(F)(F)F)c2)c1 (centres unmarked) [Example 547] | > 50000 nM
19 | O=C(Nc1cccc(N(Cc2cccc(OC(F)(F)C(F)F)c2)CC(O)C(F)(F)F)c1)Nc1cccc(C(F)(F)F)c1 (centres unmarked) [Example 548] | > 50000 nM
20 | CC(C)NC(=O)Nc1cccc(N(Cc2cccc(OC(F)(F)C(F)F)c2)CC(O)C(F)(F)F)c1 (centres unmarked) [Example 549] | > 50000 nM
21 | OC(CN(Cc1cccc(OC(F)(F)C(F)F)c1)c1cccc(-c2cc(C(F)(F)F)cc(C(F)(F)F)c2)c1)C(F)(F)F (centres unmarked) [Example 551] | 10000 nM
22 | CSc1ccc(-c2cccc(N(Cc3cccc(OC(F)(F)C(F)F)c3)CC(O)C(F)(F)F)c2)cc1 (centres unmarked) [Example 553] | 4800 nM
23 | Cc1cc(-c2cccc(N(Cc3cccc(OC(F)(F)C(F)F)c3)CC(O)C(F)(F)F)c2)cc(C)c1N(C)C (centres unmarked) [Example 563] | > 50000 nM

Compounds with a lower IC50, results first:

Row | IC50 | Compound
24 | 3000 nM | O=[N+]([O-])c1cccc(Cc2cccc(N(Cc3cccc(OC(F)(F)C(F)F)c3)CC(O)C(F)(F)F)c2)c1 (centres unmarked) [Example 516]
25 | 2700 nM | OC(CN(Cc1cccc(OC(F)(F)C(F)F)c1)c1cccc(NCc2ccc(F)cc2)c1)C(F)(F)F (centres unmarked) [Example 543]
26 | 2700 nM | Cc1ccc(-c2cccc(N(Cc3cccc(OC(F)(F)C(F)F)c3)CC(O)C(F)(F)F)c2)cc1 (centres unmarked) [Example 566]
27 | 2500 nM | OC(CN(Cc1cccc(OC(F)(F)C(F)F)c1)c1cccc(Cc2ccc(F)cc2)c1)C(F)(F)F (centres unmarked) [Example 519]
28 | 2500 nM | COc1c(Cl)cc(-c2cccc(N(Cc3cccc(OC(F)(F)C(F)F)c3)CC(O)C(F)(F)F)c2)cc1Cl (centres unmarked) [Example 555]
29 | 2400 nM | OC(CN(Cc1cccc(OC(F)(F)C(F)F)c1)c1cccc(NCc2ccccc2)c1)C(F)(F)F (centres unmarked) [Example 542]
30 | 2300 nM | OC(CN(Cc1cccc(OC(F)(F)C(F)F)c1)c1cccc(NCc2cccc(OC(F)(F)C(F)F)c2)c1)C(F)(F)F (centres unmarked) [Example 544]
31 | 2100 nM | COc1ccc(-c2cccc(N(Cc3cccc(OC(F)(F)C(F)F)c3)CC(O)C(F)(F)F)c2)cc1C (centres unmarked) [Example 562]
32 | 1800 nM | OC(CN(Cc1cccc(OC(F)(F)C(F)F)c1)c1cccc(-c2ccc(Cl)c(Cl)c2)c1)C(F)(F)F (centres unmarked) [Example 561]
33 | 1600 nM | Cc1ccc(Cc2cccc(N(Cc3cccc(OC(F)(F)C(F)F)c3)CC(O)C(F)(F)F)c2)cc1 (centres unmarked) [Example 517]
34 | 1500 nM | OC(CN(Cc1cccc(OC(F)(F)C(F)F)c1)c1cccc(-c2ccc(Cl)cc2)c1)C(F)(F)F (centres unmarked) [Example 565]
35 | 1400 nM | Cc1cc(Cc2cccc(N(Cc3cccc(OC(F)(F)C(F)F)c3)CC(O)C(F)(F)F)c2)ccc1Cl (centres unmarked) [Example 522]
36 | 1400 nM | CSc1ccc(Cc2cccc(N(Cc3cccc(OC(F)(F)C(F)F)c3)CC(O)C(F)(F)F)c2)cc1 (centres unmarked) [Example 526]
37 | 1200 nM | OC(CN(Cc1cccc(OC(F)(F)C(F)F)c1)c1cccc(Cc2ccc(F)c(Cl)c2)c1)C(F)(F)F (centres unmarked) [Example 524]
38 | 970 nM | CC(C)CNc1cccc(N(Cc2cccc(OC(F)(F)C(F)F)c2)CC(O)C(F)(F)F)c1 (centres unmarked) [Example 541]
39 | 790 nM | OC(CN(Cc1cccc(OC(F)(F)C(F)F)c1)c1cccc(Cc2cc(Cl)cc(Cl)c2)c1)C(F)(F)F (centres unmarked) [Example 518]
40 | 770 nM | Cc1ccc(Cc2cccc(N(Cc3cccc(OC(F)(F)C(F)F)c3)CC(O)C(F)(F)F)c2)cc1C (centres unmarked) [Example 523]
41 | 760 nM | OC(CN(Cc1cccc(OC(F)(F)C(F)F)c1)c1cccc(Cc2cccc(Cl)c2)c1)C(F)(F)F (centres unmarked) [Example 525]
42 | 580 nM | COc1cccc(Cc2cccc(N(Cc3cccc(OC(F)(F)C(F)F)c3)CC(O)C(F)(F)F)c2)c1 (centres unmarked) [Example 527]
43 | 430 nM | Cc1cc(Cc2cccc(N(Cc3cccc(OC(F)(F)C(F)F)c3)CC(O)C(F)(F)F)c2)ccc1F (centres unmarked) [Example 521]
44 | 340 nM | OC(CN(Cc1cccc(OC(F)(F)C(F)F)c1)c1cccc(Cc2cccc(C(F)(F)F)c2)c1)C(F)(F)F (centres unmarked) [Example 514, 3-[[[3-(1,1,2,2-tetrafluoroethoxy)phenyl]methyl][3-[[(3-trifluoromethyl)-phenyl]methyl]phenyl]amino]-1,1,1-trifluoro-2-propanol]
